In ChEMBL document CHEMBL4038335, “Neuroactive Steroids. 2. 3α-Hydroxy-3β-methyl-21-(4-cyano-1H-pyrazol-1'-yl)-19-nor-5β-pregnan-20-one (SAGE-217): A Clinical Next Generation Neuroactive Steroid Positive Allosteric Modulator of the (γ-Aminobutyric Acid)A Receptor” (J Med Chem, 2017):

Key:
[1] = Displacement of [35S]TBPS from GABA-A receptor in Sprague-Dawley rat cerebral cortex cell membranes after 90 mins in presence of GABA by liquid scintillation counting
[2] = target: GABA-A receptor; alpha-1/beta-2/gamma-2 (Homo sapiens) (UniProt P14867+P47870+P18507); experiment: (§1) Positive allosteric modulation of GABAA receptor alpha1beta2gamma2 (unknown origin) expressed in mouse LTK cells assessed as potentiation of GABA-mediated increase in channel current under holding potential at -80 mV at 0.01 to 10 uM preincubated for 30 secs followed by GABA stimulation for 2 secs by automated patch clamp assay relative to GABA; assay type: cell-based
[3] = target: T1, GABA-A receptor; alpha-1/beta-2/gamma-2 (Homo sapiens, UniProt P14867+P18507+P47870); experiment: as §1, with “mV” for “mV at 0.01 to 10 uM”, “assay” for “assay relative to GABA”; assay type: cell-based
T1 sequence (P14867 whole entry): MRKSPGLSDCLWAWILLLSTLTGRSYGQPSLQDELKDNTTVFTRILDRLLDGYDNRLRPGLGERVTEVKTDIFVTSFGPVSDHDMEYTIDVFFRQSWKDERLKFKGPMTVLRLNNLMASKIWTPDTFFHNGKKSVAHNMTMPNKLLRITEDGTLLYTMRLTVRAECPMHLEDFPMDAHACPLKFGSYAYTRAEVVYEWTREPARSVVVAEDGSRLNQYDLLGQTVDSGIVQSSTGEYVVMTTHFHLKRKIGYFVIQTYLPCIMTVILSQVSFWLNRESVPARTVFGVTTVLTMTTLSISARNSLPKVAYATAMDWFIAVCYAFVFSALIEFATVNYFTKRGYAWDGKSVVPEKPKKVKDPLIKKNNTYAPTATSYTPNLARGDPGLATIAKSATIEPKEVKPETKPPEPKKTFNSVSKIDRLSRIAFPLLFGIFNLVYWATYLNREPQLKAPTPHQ
T1 sequence (P47870 whole entry): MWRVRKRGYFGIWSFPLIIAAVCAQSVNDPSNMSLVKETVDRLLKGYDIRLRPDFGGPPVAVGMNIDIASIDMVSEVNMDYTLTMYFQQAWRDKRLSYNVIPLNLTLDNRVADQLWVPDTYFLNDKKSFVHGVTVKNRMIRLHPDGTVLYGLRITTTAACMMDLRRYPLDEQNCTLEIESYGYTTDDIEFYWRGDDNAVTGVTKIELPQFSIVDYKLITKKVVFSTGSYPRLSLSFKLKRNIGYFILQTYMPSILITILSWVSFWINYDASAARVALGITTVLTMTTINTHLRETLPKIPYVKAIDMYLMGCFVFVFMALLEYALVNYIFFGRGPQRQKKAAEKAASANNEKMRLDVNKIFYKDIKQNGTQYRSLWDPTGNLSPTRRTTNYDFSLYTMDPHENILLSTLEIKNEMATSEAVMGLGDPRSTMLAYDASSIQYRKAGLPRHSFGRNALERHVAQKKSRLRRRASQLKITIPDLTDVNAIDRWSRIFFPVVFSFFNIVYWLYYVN
T1 sequence (P18507 whole entry): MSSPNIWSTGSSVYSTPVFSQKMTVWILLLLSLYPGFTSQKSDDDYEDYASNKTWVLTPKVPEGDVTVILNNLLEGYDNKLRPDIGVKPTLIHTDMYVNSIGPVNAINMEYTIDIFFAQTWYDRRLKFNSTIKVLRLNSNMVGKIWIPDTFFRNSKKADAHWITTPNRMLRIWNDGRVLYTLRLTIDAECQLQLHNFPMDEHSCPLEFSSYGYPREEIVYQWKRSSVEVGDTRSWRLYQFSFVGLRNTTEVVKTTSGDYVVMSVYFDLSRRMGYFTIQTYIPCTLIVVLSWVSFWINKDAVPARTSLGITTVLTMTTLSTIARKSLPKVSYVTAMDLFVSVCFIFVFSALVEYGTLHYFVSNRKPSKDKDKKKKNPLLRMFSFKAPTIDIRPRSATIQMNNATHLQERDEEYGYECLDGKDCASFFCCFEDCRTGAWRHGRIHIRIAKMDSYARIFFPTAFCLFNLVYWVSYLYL

[4] = target: Gamma-aminobutyric acid receptor subunit alpha-4/beta3/delta (Homo sapiens, UniProt O14764+P28472+P48169); experiment: as §1, with “alpha4beta3delta” for “alpha1beta2gamma2”, “CHO” for “mouse LTK”, “mV” for “mV at 0.01 to 10 uM”, “manual” for “automated”, “assay” for “assay relative to GABA”; assay type: cell-based
Gamma-aminobutyric acid receptor subunit alpha-4/beta3/delta, sequence (P28472 whole entry): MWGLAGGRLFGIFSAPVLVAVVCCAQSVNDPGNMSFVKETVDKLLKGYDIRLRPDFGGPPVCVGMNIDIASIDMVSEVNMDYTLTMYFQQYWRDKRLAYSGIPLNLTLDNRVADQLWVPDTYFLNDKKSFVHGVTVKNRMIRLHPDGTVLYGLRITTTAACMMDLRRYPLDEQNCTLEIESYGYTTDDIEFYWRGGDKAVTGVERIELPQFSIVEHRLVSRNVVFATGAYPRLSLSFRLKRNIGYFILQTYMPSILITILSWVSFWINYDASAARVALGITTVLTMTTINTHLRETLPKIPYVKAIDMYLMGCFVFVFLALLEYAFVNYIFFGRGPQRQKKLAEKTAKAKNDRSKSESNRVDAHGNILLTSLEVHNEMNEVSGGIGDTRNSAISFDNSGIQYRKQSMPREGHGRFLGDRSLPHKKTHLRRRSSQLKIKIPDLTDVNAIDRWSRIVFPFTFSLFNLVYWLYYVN
Gamma-aminobutyric acid receptor subunit alpha-4/beta3/delta, sequence (P48169 whole entry): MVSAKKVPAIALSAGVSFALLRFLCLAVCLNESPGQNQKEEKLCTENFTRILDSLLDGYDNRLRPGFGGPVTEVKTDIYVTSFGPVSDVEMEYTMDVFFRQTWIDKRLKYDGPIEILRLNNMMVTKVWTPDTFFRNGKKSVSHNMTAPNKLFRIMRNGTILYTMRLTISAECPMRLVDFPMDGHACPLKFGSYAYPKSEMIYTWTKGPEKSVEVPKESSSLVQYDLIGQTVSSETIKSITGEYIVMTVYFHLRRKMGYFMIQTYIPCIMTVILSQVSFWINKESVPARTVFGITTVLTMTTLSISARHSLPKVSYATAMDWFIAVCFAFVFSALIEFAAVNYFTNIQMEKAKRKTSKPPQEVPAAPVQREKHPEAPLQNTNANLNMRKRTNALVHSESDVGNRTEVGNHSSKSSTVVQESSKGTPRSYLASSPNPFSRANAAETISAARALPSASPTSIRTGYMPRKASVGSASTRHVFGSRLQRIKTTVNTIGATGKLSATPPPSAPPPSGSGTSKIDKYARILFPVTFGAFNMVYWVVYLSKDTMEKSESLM
Gamma-aminobutyric acid receptor subunit alpha-4/beta3/delta, sequence (O14764 whole entry): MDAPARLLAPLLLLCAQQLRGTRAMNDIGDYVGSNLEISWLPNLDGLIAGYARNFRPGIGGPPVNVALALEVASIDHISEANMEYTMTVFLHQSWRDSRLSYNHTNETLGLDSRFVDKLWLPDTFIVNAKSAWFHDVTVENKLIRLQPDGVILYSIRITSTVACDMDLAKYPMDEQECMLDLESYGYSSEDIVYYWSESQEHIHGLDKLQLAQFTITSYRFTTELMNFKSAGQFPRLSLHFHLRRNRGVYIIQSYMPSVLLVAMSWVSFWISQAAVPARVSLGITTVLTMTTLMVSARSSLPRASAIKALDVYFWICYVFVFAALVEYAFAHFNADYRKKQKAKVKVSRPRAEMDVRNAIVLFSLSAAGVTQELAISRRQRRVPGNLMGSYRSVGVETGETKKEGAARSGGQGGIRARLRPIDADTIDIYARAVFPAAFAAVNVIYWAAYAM

[5] = target: GABA-A receptor alpha-4/beta-3/delta (Homo sapiens, UniProt P28472+P48169+); experiment: as §1, with “alpha4beta3delta” for “alpha1beta2gamma2”, “CHO” for “mouse LTK”, “manual” for “automated”; assay type: cell-based; conditions: 2 s
GABA-A receptor alpha-4/beta-3/delta, sequence (P28472 whole entry): as the sequence (P28472 whole entry) above
GABA-A receptor alpha-4/beta-3/delta, sequence (P48169 whole entry): as the sequence (P48169 whole entry) above
GABA-A receptor alpha-4/beta-3/delta, sequence (Q06278 whole entry, further chain): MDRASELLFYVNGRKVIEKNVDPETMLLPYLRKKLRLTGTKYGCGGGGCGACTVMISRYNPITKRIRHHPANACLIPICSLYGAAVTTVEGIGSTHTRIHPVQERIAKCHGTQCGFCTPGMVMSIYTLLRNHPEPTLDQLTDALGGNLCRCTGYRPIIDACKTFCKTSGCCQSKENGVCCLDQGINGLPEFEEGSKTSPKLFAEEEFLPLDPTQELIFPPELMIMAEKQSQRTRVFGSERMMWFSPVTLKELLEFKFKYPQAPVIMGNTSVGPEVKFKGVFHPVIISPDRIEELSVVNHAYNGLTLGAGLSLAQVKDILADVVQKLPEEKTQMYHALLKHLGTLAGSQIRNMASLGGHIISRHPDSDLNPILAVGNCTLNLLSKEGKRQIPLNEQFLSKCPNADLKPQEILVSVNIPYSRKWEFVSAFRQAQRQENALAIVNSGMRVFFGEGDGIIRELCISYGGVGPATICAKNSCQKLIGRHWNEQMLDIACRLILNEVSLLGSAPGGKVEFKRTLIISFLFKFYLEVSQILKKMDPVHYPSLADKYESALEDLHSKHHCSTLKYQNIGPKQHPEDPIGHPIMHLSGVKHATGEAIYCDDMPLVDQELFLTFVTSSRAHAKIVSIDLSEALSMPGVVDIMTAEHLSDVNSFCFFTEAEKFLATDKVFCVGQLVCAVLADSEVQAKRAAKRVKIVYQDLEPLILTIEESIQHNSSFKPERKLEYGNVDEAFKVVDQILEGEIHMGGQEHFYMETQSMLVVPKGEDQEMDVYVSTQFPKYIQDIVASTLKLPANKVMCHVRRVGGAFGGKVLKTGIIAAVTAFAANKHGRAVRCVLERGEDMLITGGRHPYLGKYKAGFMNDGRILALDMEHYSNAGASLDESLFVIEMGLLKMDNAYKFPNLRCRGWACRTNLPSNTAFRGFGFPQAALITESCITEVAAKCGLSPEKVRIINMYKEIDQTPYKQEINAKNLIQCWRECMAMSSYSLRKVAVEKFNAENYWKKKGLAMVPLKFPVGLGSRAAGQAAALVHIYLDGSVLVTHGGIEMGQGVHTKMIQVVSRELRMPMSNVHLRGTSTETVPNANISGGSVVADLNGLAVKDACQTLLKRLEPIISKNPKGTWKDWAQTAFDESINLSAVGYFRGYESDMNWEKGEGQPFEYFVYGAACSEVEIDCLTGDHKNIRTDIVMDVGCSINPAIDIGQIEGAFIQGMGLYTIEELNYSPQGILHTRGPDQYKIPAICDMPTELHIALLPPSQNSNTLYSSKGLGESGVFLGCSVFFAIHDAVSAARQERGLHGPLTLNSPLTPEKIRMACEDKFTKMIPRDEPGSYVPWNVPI

Row | SMILES | IC50 [1] [nM] | Emax [2] [%] | EC50 [3] [nM] | EC50 [4] [nM] | Emax [5] [%]
1 | C[C@@]1(O)CC[C@H]2[C@H](CC[C@@H]3[C@@H]2CC[C@]2(C)[C@@H](C(=O)Cn4cc(C(N)=O)cn4)CC[C@@H]32)C1 | 64 | > 357 | > 3000 |  | 
2 | C[C@@]1(O)CC[C@H]2[C@H](CC[C@@H]3[C@@H]2CC[C@]2(C)[C@@H](C(=O)Cn4cc(C#N)nn4)CC[C@@H]32)C1 | 251 |  |  |  | 
3 | Cc1ccnn1CC(=O)[C@H]1CC[C@H]2[C@@H]3CC[C@@H]4C[C@](C)(O)CC[C@@H]4[C@H]3CC[C@]12C | 80 | > 469 | > 10000 |  | 
4 | COC[C@@]1(O)CC[C@H]2[C@H](CC[C@@H]3[C@@H]2CC[C@]2(C)[C@@H](C(=O)Cn4cc(C#N)cn4)CC[C@@H]32)C1 | 16 | > 1130 | > 3000 | 577 | 610
5 | Cc1ccn(CC(=O)[C@H]2CC[C@H]3[C@@H]4CC[C@@H]5C[C@](C)(O)CC[C@@H]5[C@H]4CC[C@]23C)n1 | 45 | > 695 | > 3650 |  | 
6 | Cc1cn(CC(=O)[C@H]2CC[C@H]3[C@@H]4CC[C@@H]5C[C@](C)(O)CC[C@@H]5[C@H]4CC[C@]23C)nn1 | 17 | > 530 | > 3000 |  | 
7 | COc1cnn(CC(=O)[C@H]2CC[C@H]3[C@@H]4CC[C@@H]5C[C@](C)(O)CC[C@@H]5[C@H]4CC[C@]23C)c1 | 28 | 434 | 1760 | 2050 | 750
8 | C[C@@]1(O)CC[C@H]2[C@H](CC[C@@H]3[C@@H]2CC[C@]2(C)[C@@H](C(=O)Cn4ncc(C#N)n4)CC[C@@H]32)C1 | 78 | > 154 | > 3000 |  | 
9 | C[C@@]1(O)CC[C@H]2[C@H](CC[C@@H]3[C@@H]2CC[C@]2(C)[C@@H](C(=O)Cn4cc(Cl)cn4)CC[C@@H]32)C1 | 13 | 642 | 1500 | 744 | 
10 | Cc1cnnn1CC(=O)[C@H]1CC[C@H]2[C@@H]3CC[C@@H]4C[C@](C)(O)CC[C@@H]4[C@H]3CC[C@]12C | > 3000 | 1120 | 1600 | 2010 | 
11 | C[C@@]1(O)CC[C@H]2[C@H](CC[C@@H]3[C@@H]2CC[C@]2(C)[C@@H](C(=O)Cn4cc(C(F)(F)F)cn4)CC[C@@H]32)C1 | 8 | 339 | 1050 | 1600 | 
12 | C[C@@]1(O)CC[C@H]2[C@H](CC[C@@H]3[C@@H]2CC[C@]2(C)[C@@H](C(=O)Cn4cc([N+](=O)[O-])cn4)CC[C@@H]32)C1 | 18 | 440 | 1160 |  | 
13 | CC[C@@]1(O)CC[C@H]2[C@H](CC[C@@H]3[C@@H]2CC[C@]2(C)[C@@H](C(=O)Cn4cc(C#N)cn4)CC[C@@H]32)C1 | 36 | > 297 | > 3000 |  | 
14 | C[C@@]1(O)CC[C@H]2[C@H](CC[C@@H]3[C@@H]2CC[C@]2(C)[C@@H](C(=O)Cn4cc(C(=O)O)cn4)CC[C@@H]32)C1 | > 3000 |  |  |  | 
